The assay concerns the target T1, human GPR68 (Homo sapiens, UniProt Q15743).
T1 construct: encoding full-length human GPR68 (uniprot ID: Q15743); expressed in transfected cells; host or cells: HEK293T
In words: GPR68 Biochemical Assay (Promega GloSensor cAMP assay, GPR68 antagonism). The class given is cell-based. As to conditions: 15 min. An outline of the steps:
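Readout is GloSensor cAMP luminescence after 15 min at room temperature, normalised between pH 5.5 stimulation and pH 8.0 minimum controls; IC50 fitted sigmoidally. Test compounds, up to 50 μM final (9-point half-log, 0.5% DMSO), were co-added with pH 5.5 buffer to HEK293T cells transiently expressing full-length human GPR68 plus GloSensor.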

The mark [1] stands for this setting: HEK293T cells transiently expressing hGPR68, antagonism of pH 5.5 stimulated cAMP, read-out: hGPR68 IC50.

Read-outs that look alike come from different tables or passages of the source. Some results are limits rather than exact numbers.

As usually defined, the IC50 is the point on the concentration scale where inhibition reaches its midpoint.

T1 sequence (Q15743 whole entry): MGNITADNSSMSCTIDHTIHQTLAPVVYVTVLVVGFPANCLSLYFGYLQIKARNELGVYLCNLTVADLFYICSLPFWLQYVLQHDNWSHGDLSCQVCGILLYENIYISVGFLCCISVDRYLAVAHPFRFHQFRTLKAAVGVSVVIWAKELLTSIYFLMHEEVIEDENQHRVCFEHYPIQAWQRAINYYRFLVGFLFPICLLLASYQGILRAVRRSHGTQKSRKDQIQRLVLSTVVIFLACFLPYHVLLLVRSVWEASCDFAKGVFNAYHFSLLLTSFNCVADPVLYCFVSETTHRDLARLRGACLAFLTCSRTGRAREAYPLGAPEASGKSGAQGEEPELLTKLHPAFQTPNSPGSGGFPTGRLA

Regarding `COCc1nn2c(C(=O)N[C@H]3CCc4ccccc43)ccnc2c1C(N)=O` [Compound 183, 2-(methoxymethyl)-N7-[(1S)-indan-1-yl]pyrazolo[1,5-a]pyrimidine-3,7-dicarboxamide], under setting [1], the IC50 was below 50 nM.

Regarding `COCc1nn2c(C(=O)NC3COc4ncccc43)ccnc2c1C(N)=O` (centres unmarked) [Compound 184, N7-(2,3-dihydrofuro[2,3-b]pyridin-3-yl)-2-(methoxymethyl)pyrazolo[1,5-a]pyrimidine-3,7-dicarboxamide], under setting [1], the half-maximal inhibitory concentration (IC50) was below 50 nM.

For `COCc1nn2c(C(=O)NC3COc4cc(F)cc(F)c4C3)ccnc2c1C(N)=O` (centres unmarked) [Compound 185, N7-(5,7-difluorochroman-3-yl)-2-(methoxymethyl)pyrazolo[1,5-a]pyrimidine-3,7-dicarboxamide], the 50% inhibitory concentration (IC50) under setting [1] fell in the range of 50 to 500 nM. On to `COCc1nn2c(C(=O)NC3CCC(C)(C)c4ccccc43)ccnc2c1C(N)=O` (centres unmarked) [Compound 186, N7-(4,4-dimethyltetralin-1-yl)-2-(methoxymethyl)pyrazolo[1,5-a]pyrimidine-3,7-dicarboxamide], for which the IC50 under setting [1] was in the range of 500 to 5000 nM. Take `COCc1nn2c(C(=O)NC3CCc4nccn4C3)ccnc2c1C(N)=O` (centres unmarked) [Compound 187, 2-(methoxymethyl)-N7-(5,6,7,8-tetrahydroimidazo[1,2-a]pyridin-6-yl)pyrazolo[1,5-a]pyrimidine-3,7-dicarboxamide]: the IC50 under setting [1] fell in the range of 500 to 5000 nM. In the case of `COCc1nn2c(C(=O)NC3CCc4cncn4C3)ccnc2c1C(N)=O` (centres unmarked) [Compound 188, 2-(methoxymethyl)-N7-(5,6,7,8-tetrahydroimidazo[1,5-a]pyridin-6-yl)pyrazolo[1,5-a]pyrimidine-3,7-dicarboxamide], the half-maximal inhibitory concentration (IC50) under setting [1] lay within 500 to 5000 nM. Regarding `COCc1nn2c(C(=O)NC3CCS(=O)(=O)c4ccccc43)ccnc2c1C(N)=O` (centres unmarked) [Compound 189, N7-(1,1-dioxo-3,4-dihydro-2H-thiochromen-4-yl)-2-(methoxymethyl)pyrazolo[1,5-a]pyrimidine-3,7-dicarboxamide], under setting [1], the IC50 was below 50 nM.

Consider `COCc1nn2c(C(=O)NC3CCc4ncsc4C3)ccnc2c1C(N)=O` (centres unmarked) [Compound 190, 2-(methoxymethyl)-N7-(4,5,6,7-tetrahydro-1,3-benzothiazol-6-yl)pyrazolo[1,5-a]pyrimidine-3,7-dicarboxamide], for which, under setting [1], the IC50 was 50 to 500 nM. Take `COCc1nn2c(C(=O)NC3COc4c(F)cc(F)cc43)ccnc2c1C(N)=O` (centres unmarked) [Compound 191, N7-(5,7-difluoro-2,3-dihydrobenzofuran-3-yl)-2-(methoxymethyl)pyrazolo[1,5-a]pyrimidine-3,7-dicarboxamide]: the IC50 under setting [1] was below 50 nM. As to `COCc1nn2c(C(=O)NC3COc4c(F)cccc43)ccnc2c1C(N)=O` (centres unmarked) [Compound 192, N7-(7-fluoro-2,3-dihydrobenzofuran-3-yl)-2-(methoxymethyl)pyrazolo[1,5-a]pyrimidine-3,7-dicarboxamide], the half-maximal inhibitory concentration (IC50) under setting [1] is below 50 nM.

Consider `COCc1nn2c(C(=O)N[C@H]3CCCc4ccccc43)ccnc2c1C(N)=O` [Compound 193, 2-(methoxymethyl)-N7-[(1S)-tetralin-1-yl]pyrazolo[1,5-a]pyrimidine-3,7-dicarboxamide], for which the IC50 under setting [1] was below 50 nM. Turning to `COCc1nn2c(C(=O)NC3Cc4ccc(F)cc4C3)ccnc2c1C(N)=O` (centres unmarked) [Compound 194, N7-(5-fluoroindan-2-yl)-2-(methoxymethyl)pyrazolo[1,5-a]pyrimidine-3,7-dicarboxamide], the IC50 under setting [1] was below 50 nM. Regarding `COCc1nn2c(C(=O)NC3Cc4cc(F)c(F)cc4C3)ccnc2c1C(N)=O` [Compound 195, N7-(5,6-difluoroindan-2-yl)-2-(methoxymethyl)pyrazolo[1,5-a]pyrimidine-3,7-dicarboxamide], the concentration for half-maximal inhibition (IC50) under setting [1] is below 50 nM. `COCc1nn2c(C(=O)NC3COc4ccc(F)cc4C3)ccnc2c1C(N)=O` (centres unmarked) [Compound 196, N7-(6-fluorochroman-3-yl)-2-(methoxymethyl)pyrazolo[1,5-a]pyrimidine-3,7-dicarboxamide]: under setting [1], the IC50 was below 50 nM.

Turning to `COCc1nn2c(C(=O)NCc3ccc(O)cc3)ccnc2c1C(N)=O` [Compound 197, N7-[(4-hydroxyphenyl)methyl]-2-(methoxymethyl)pyrazolo[1,5-a]pyrimidine-3,7-dicarboxamide], under setting [1], the IC50 is 500 to 5000 nM. Regarding `COCc1nn2c(C(=O)N[C@H]3CC(C)(C)c4ccccc43)ccnc2c1C(N)=O` [Compound 198, 2-(methoxymethyl)-N7-[(1S)-3,3-dimethylindan-1-yl]pyrazolo[1,5-a]pyrimidine-3,7-dicarboxamide], the IC50 under setting [1] lay within 50 to 500 nM.

As for `COCc1nn2c(C(=O)NCc3ccccc3OC)ccnc2c1C(N)=O` [Compound 199, 2-(methoxymethyl)-N7-[(2-methoxyphenyl)methyl]pyrazolo[1,5-a]pyrimidine-3,7-dicarboxamide], the IC50 under setting [1] was in the range of 50 to 500 nM. Take `COCc1nn2c(C(=O)N[C@@H]3Cc4ccccc4[C@@H]3C)ccnc2c1C(N)=O` [Compound 201]: under setting [1], the IC50 is below 50 nM.

Consider `CCOCc1nn2c(C(=O)NC3Cc4ccccc4C3)ccnc2c1C(N)=O` [Compound 202, 2-(ethoxymethyl)-N7-indan-2-yl-pyrazolo[1,5-a]pyrimidine-3,7-dicarboxamide], for which the IC50 under setting [1] was below 50 nM. On to `NC(=O)c1c(C2CCCO2)nn2c(C(=O)N[C@H]3C[C@@H](OC(F)(F)F)C3)ccnc12` (stereo partly drawn) [Compound 203, 2-tetrahydrofuran-2-yl-N7-[cis-3-(trifluoromethoxy)cyclobutyl]pyrazolo[1,5-a]pyrimidine-3,7-dicarboxamide], for which, under setting [1], the IC50 fell in the range of 50 to 500 nM. Same read-out and setting: the figure for `NC(=O)c1c(CO)nn2c(C(=O)NC3Cc4ccccc4C3)ccnc12` [Compound 204, 2-(hydroxymethyl)-N7-indan-2-yl-pyrazolo[1,5-a]pyrimidine-3,7-dicarboxamide] is 50 to 500 nM. For `CCOCc1nn2c(C(=O)N[C@H]3C[C@@H](OC(F)(F)F)C3)ccnc2c1C(N)=O` [Compound 205, 2-(ethoxymethyl)-N7-[cis-3-(trifluoromethoxy)cyclobutyl]pyrazolo[1,5-a]pyrimidine-3,7-dicarboxamide], the IC50 under setting [1] fell in the range of 50 to 500 nM.

As for `COCc1nn2c(C(=O)N[C@H]3C[C@@H](OC(F)(F)F)C3)cc(C)nc2c1C(N)=O` [Compound 206, 2-(methoxymethyl)-5-methyl-N7-[cis-3-(trifluoromethoxy)cyclobutyl]pyrazolo[1,5-a]pyrimidine-3,7-dicarboxamide], the IC50 under setting [1] fell in the range of 50 to 500 nM. Regarding `NC(=O)c1c(CO)nn2c(C(=O)NC3CC(F)(F)C3)ccnc12` [Compound 207, N7-(3,3-difluorocyclobutyl)-2-(hydroxymethyl)pyrazolo[1,5-a]pyrimidine-3,7-dicarboxamide], the IC50 under setting [1] fell in the range of 500 to 5000 nM.

For `NC(=O)c1c(C2CC2)nc2c(C(=O)NC3Cc4cscc4C3)ccnn12` [Compound 208, 2-cyclopropyl-N8-(5,6-dihydro-4H-cyclopenta[c]thiophen-5-yl)imidazo[1,2-b]pyridazine-3,8-dicarboxamide], the IC50 under setting [1] was below 50 nM. As to `NC(=O)c1c(C2CC2)nc2c(C(=O)NC3CC(F)(F)c4ccccc43)ccnn12` (centres unmarked) [Compound 209, 2-cyclopropyl-N8-(3,3-difluoroindan-1-yl)imidazo[1,2-b]pyridazine-3,8-dicarboxamide], under setting [1], the IC50 was below 50 nM. As to `NC(=O)c1c(C2CC2)nc2c(C(=O)NC3Cc4ccccc43)ccnn12` (centres unmarked) [Compound 210, N8-(7-bicyclo[4.2.0]octa-1,3,5-trienyl)-2-cyclopropyl-imidazo[1,2-b]pyridazine-3,8-dicarboxamide], the 50% inhibitory concentration (IC50) under setting [1] was below 50 nM. In the case of `NC(=O)c1c(C2CC2)nc2c(C(=O)N[C@H]3CCOc4cc(F)ccc43)ccnn12` [Compound 211, 2-cyclopropyl-N8-[(4S)-7-fluorochroman-4-yl]imidazo[1,2-b]pyridazine-3,8-dicarboxamide], the concentration for half-maximal inhibition (IC50) under setting [1] is below 50 nM.

Consider `COCc1nc2c(C(=O)NC3CCC(F)(F)CC3)ncnn2c1C(N)=O` [Compound 212, N4-(4,4-difluorocyclohexyl)-6-(methoxymethyl)imidazo[2,1-f][1,2,4]triazine-4,7-dicarboxamide], for which the IC50 under setting [1] was 50 to 500 nM. The compound `CC(C)(O)c1nn2c(C(=O)NC3CC(F)(F)C3)ccnc2c1C(N)=O` [Compound 213, N7-(3,3-difluorocyclobutyl)-2-(1-hydroxy-1-methyl-ethyl)pyrazolo[1,5-a]pyrimidine-3,7-dicarboxamide] had a concentration for half-maximal inhibition (IC50) (hGPR68 IC50, HEK293T cells transiently expressing hGPR68, antagonism of pH 5.5 stimulated cAMP) of 50 to 500 nM.

On to `CSCc1nn2c(C(=O)NC3Cc4ccccc4C3)ccnc2c1C(N)=O` [Compound 214, N7-indan-2-yl-2-(methylsulfanylmethyl)pyrazolo[1,5-a]pyrimidine-3,7-dicarboxamide], for which the 50% inhibitory concentration (IC50) under setting [1] was below 50 nM. As for `CS(=O)(=O)Cc1nn2c(C(=O)NC3Cc4ccccc4C3)ccnc2c1C(N)=O` [Compound 215, N7-indan-2-yl-2-(methylsulfonylmethyl)pyrazolo[1,5-a]pyrimidine-3,7-dicarboxamide], the IC50 under setting [1] was 50 to 500 nM. As for `NC(=O)c1c(COC2CC2)nn2c(C(=O)N[C@H]3C[C@@H](OC(F)(F)F)C3)ccnc12` [Compound 216, 2-(cyclopropoxymethyl)-N7-[cis-3-(trifluoromethoxy)cyclobutyl]pyrazolo[1,5-a]pyrimidine-3,7-dicarboxamide], the IC50 under setting [1] is below 50 nM. For the compound `CSCc1nn2c(C(=O)N[C@H]3C[C@@H](OC(F)(F)F)C3)ccnc2c1C(N)=O` [Compound 217, 2-(methylsulfanylmethyl)-N7-[cis-3-(trifluoromethoxy)cyclobutyl]pyrazolo[1,5-a]pyrimidine-3,7-dicarboxamide], the half-maximal inhibitory concentration (IC50) under setting [1] is below 50 nM.

As to `COCc1nc2c(C(=O)NC3CCC(F)(F)CC3)cc(C)nn2c1C(N)=O` [Compound 218, N8-(4,4-difluorocyclohexyl)-2-(methoxymethyl)-6-methyl-imidazo[1,2-b]pyridazine-3,8-dicarboxamide], under setting [1], the IC50 was in the range of 50 to 500 nM.

For the origin of these results see patent US20260308159A1, “BICYCLIC HETEROARYLAMIDES HAVING GPR68 MODULATING ACTIVITY” (RECURSION PHARMACEUTICALS, INC., priority 2023, published 2026).
